Results from patent US20230136562A1, “SPIROUREA DERIVATIVES” (Idorsia Pharmaceuticals Ltd, priority 2020, published 2023).
Where two headings read alike, the source gives them in different places.

Tested on: primary neuronal cultures from embryonic rat brains
Test: Rat oscillation assay (FLIPR, neuronal calcium oscillations)
Type: cell-based
Conditions: Rattus norvegicus
Method in brief: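 Cortical neurons from E18 Wistar rat embryos, cultured 8–10 days at high density, loaded with 1 μM Fluo-8 AM; calcium oscillations recorded by FLIPR once per second in Mg-free HBSS with 2 mM CaCl2, 20 mM HEPES, pH 7.4. Two acquisitions ("Acute", 500 sec, compound added at 250 sec; "20 min"), ± Kv7 blocker XE-991.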

[1] = 20 min, AUC of fluorescence measured 20 min after compound addition, read-out: FLIPR: IC50 [nM] 20 min
[2] = Acute phase, ratio of AUC fluorescence before and after compound addition, read-out: FLIPR: IC50 [nM] acute

Work on `COCC1c2cccc(OCC(F)(F)F)c2CCN1C(=O)NC1CC2(CCC2)C1` (racemic) [Example 54, (±)-1-Methoxymethyl-5-(2,2,2-trifluoro-ethoxy)-3,4-dihydro-1H-isoquinoline-2-carboxylic acid spiro[3.3]hept-2-ylamide] yielded an IC50 [1] of 244 nM and an IC50 [2] of 207 nM.

For `COc1ccc(C(F)(F)F)cc1C(C)NC(=O)NC1CC2(CC2)C1` (racemic) [Example 137, (±)-1-[1-(2-Methoxy-5-trifluoromethyl-phenyl)-ethyl]-3-spiro[2.3]hex-5-yl-urea], the IC50 [1] was 1020 nM and the IC50 [2] was 1240 nM.

For `COCC(NC(=O)NC1CC2(CCC2)C1)c1cc(OCC(F)(F)F)ncn1` (racemic) [Example 78, (±)-1-{2-Methoxy-1-[6-(2,2,2-trifluoro-ethoxy)-pyrimidin-4-yl]-ethyl}-3-spiro[3.3]hept-2-yl-urea], the IC50 [1] was 7.2 nM and the IC50 [2] was 9.4 nM.

In the case of `CC(NC(=O)NC1CC2(CCC2)C1)c1ccnc(OC(F)(F)F)c1` (racemic) [Example 97, (±)-1-Spiro[3.3]hept-2-yl-3-[1-(2-trifluoromethoxy-pyridin-4-yl)-ethyl]-urea], the IC50 [1] is reported as 170 nM and the IC50 [2] is reported as 53 nM.

`O=C(NCc1cccc(S(=O)(=O)C(F)(F)F)c1)NC1CC2(CCC2)C1` [Example 42, 1-Spiro[3.3]hept-2-yl-3-(3-trifluoromethanesulfonyl-benzyl)-urea] showed an IC50 [1] of 22 nM and an IC50 [2] of 27 nM.

`CC(NC(=O)NC1CC2(CC2)C1)c1cccc(OCC(F)(F)F)c1F` (racemic) [Example 131, (±)-1-{1-[2-Fluoro-3-(2,2,2-trifluoro-ethoxy)-phenyl]-ethyl}-3-spiro[2.3]hex-5-yl-urea] showed an IC50 [1] of 52 nM and an IC50 [2] of 29 nM.

With `CC(NC(=O)NC1CC2(CCC2)C1)c1ccnc(OCC(F)(F)F)c1` (racemic) [Example 93, (±)-1-Spiro[3.3]hept-2-yl-3-{1-[2-(2,2,2-trifluoro-ethoxy)-pyridin-4-yl]-ethyl}-urea] the IC50 [1] was 2.2 nM and the IC50 [2] was 1.9 nM.

Work on `CC(NC(=O)NC1CC2(CCC2)C1)c1cccc(OCC(F)(F)F)c1Cl` (racemic) [Example 30, (±)-1-{1-[2-Chloro-3-(2,2,2-trifluoro-ethoxy)-phenyl]-ethyl}-3-spiro[3.3]hept-2-yl-urea] yielded an IC50 [1] of 269 nM and an IC50 [2] of 252 nM.

In the case of `O=C(NC1CC2(CCC2)C1)NC(c1cccc(C(F)(F)F)c1)c1c[nH]nn1` (racemic) [Example 162, (±)-1-Spiro[3.3]hept-2-yl-3-[(1H-[1,2,3]triazol-4-yl)-(3-trifluoromethyl-phenyl)-methyl]-urea], the IC50 [1] is reported as 124 nM and the IC50 [2] is reported as 120 nM.

In the case of `CN(C)CC(NC(=O)NC1CC2(CCC2)C1)c1ccnc(OCC(F)(F)F)c1` (racemic) [Example 94, (±)-1-{2-Dimethylamino-1-[2-(2,2,2-trifluoro-ethoxy)-pyridin-4-yl]-ethyl}-3-spiro[3.3]hept-2-yl-urea], the IC50 [1] is reported as 117 nM and the IC50 [2] is reported as 197 nM.

`O=C(NC1CC2(CC2)C1)NC(CO)c1cccc(C(F)(F)F)c1` (racemic) [Example 143, (±)-1-[2-Hydroxy-1-(3-trifluoromethyl-phenyl)-ethyl]-3-spiro[2.3]hex-5-yl-urea] showed an IC50 [1] of 61 nM and an IC50 [2] of 42 nM.

`COCC(Oc1cc(CNC(=O)NC2CC3(CCC3)C2)ccn1)C(F)(F)F` (racemic) [Example 107, (±)-1-Spiro[3.3]hept-2-yl-3-[2-(2,2,2-trifluoro-1-methoxymethyl-ethoxy)-pyridin-4-ylmethyl]-urea] was tested, and the IC50 [1] was 91 nM and the IC50 [2] was 72 nM.

Compound `O=C(NCc1cccc(C(F)(F)F)c1F)NC1CC2(CCC2)C1` [Example 12, 1-(2-Fluoro-3-trifluoromethyl-benzyl)-3-spiro[3.3]hept-2-yl-urea] has an IC50 [1] of 55 nM and an IC50 [2] of 36 nM.

`CSCCC(NC(=O)NC1CC2(CCC2)C1)c1cccc(C(F)(F)F)c1` (racemic) [Example 75, (±)-1-[3-Methylsulfanyl-1-(3-trifluoromethyl-phenyl)-propyl]-3-spiro[3.3]hept-2-yl-urea] gave an IC50 [1] of 129 nM and an IC50 [2] of 106 nM.

For `Cc1nc(OCC(F)(F)F)cc(C(C)NC(=O)NC2CC3(CC3)C2)n1` (racemic) [Example 145, (±)-1-{1-[2-Methyl-6-(2,2,2-trifluoro-ethoxy)-pyrimidin-4-yl]-ethyl}-3-spiro[2.3]hex-5-yl-urea], the IC50 [1] was 80 nM and the IC50 [2] was 57 nM.

For `N#CC(NC(=O)NC1CC2(CCC2)C1)c1cccc(C(F)(F)F)c1` (stereo not drawn) [Example 55, 1-[Cyano-(3-trifluoromethyl-phenyl)-methyl]-3-spiro[3.3]hept-2-yl-urea], the IC50 [1] was 48 nM and the IC50 [2] was 67 nM.

`O=C(NC1CC2(CC2)C1)NC(CCO)c1cccc(OC(F)(F)F)c1` (racemic) [Example 138, (±)-1-[3-Hydroxy-1-(3-trifluoromethoxy-phenyl)-propyl]-3-spiro[2.3]hex-5-yl-urea] showed an IC50 [1] of 92 nM and an IC50 [2] of 60 nM.

`CN(C)CC(Oc1cccc(CNC(=O)NC2CC3(CCC3)C2)n1)C(F)(F)F` (racemic) [Example 105, (±)-1-[6-(1-Dimethylaminomethyl-2,2,2-trifluoro-ethoxy)-pyridin-2-ylmethyl]-3-spiro[3.3]hept-2-yl-urea] was tested, and the IC50 [1] was 261 nM and the IC50 [2] was 278 nM.

For `O=C(NCc1cccc2c1OC(F)(F)O2)NC1CC2(CCC2)C1` [Example 46, 1-(2,2-Difluoro-benzo[1,3]dioxol-4-ylmethyl)-3-spiro[3.3]hept-2-yl-urea], the IC50 [1] was 285 nM and the IC50 [2] was 234 nM.

For `CC(NC(=O)NC1CC2(CCC2)C1)c1cccc(C(F)(F)F)c1` (racemic) [Example 23, (±)-1-Spiro[3.3]hept-2-yl-3-[1-(3-trifluoromethyl-phenyl)-ethyl]-urea], the IC50 [1] was 4.6 nM and the IC50 [2] was 13 nM.

`Cn1nnc(C(NC(=O)NC2CC3(CCC3)C2)c2cccc(C(F)(F)F)c2)n1` (racemic) [Example 164, (±)-1-[(2-Methyl-2H-tetrazol-5-yl)-(3-trifluoromethyl-phenyl)-methyl]-3-spiro[3.3]hept-2-yl-urea] showed an IC50 [1] of 619 nM and an IC50 [2] of 267 nM.

`O=C(NC1CC2(CCC2)C1)NC1(c2ccnc(OC(F)F)c2)CCC1` [Example 51, 1-[1-(2-Difluoromethoxy-pyridin-4-yl)-cyclobutyl]-3-spiro[3.3]hept-2-yl-urea] was tested, and the IC50 [1] was 65 nM and the IC50 [2] was 80 nM.

With `O=C(NCc1cc(C(F)(F)F)ccc1F)NC1CC2(CC2)C1` [Example 151, 1-(2-Fluoro-5-trifluoromethyl-benzyl)-3-spiro[2.3]hex-5-yl-urea] the IC50 [1] was 419 nM and the IC50 [2] was 269 nM.

`COCC(NC(=O)NC1CC2(CCC2)C1)c1ccnc(OCC(F)(F)F)c1` (racemic) [Example 92, (±)-1-{2-Methoxy-1-[2-(2,2,2-trifluoro-ethoxy)-pyridin-4-yl]-ethyl}-3-spiro[3.3]hept-2-yl-urea] showed an IC50 [1] of 0.8 nM and an IC50 [2] of 1.3 nM.

Compound `CC(NC(=O)NC1CC2(CC(I)C2)C1)c1ccnc(OC(F)F)c1` (racemic) [Example 166, (±)-1-[1-(2-Difluoromethoxy-pyridin-4-yl)-ethyl]-3-(6-iodo-spiro[3.3]hept-2-yl)-urea] has an IC50 [1] of 474 nM and an IC50 [2] of 889 nM.

Compound `C[C@H](NC(=O)NC1CC2(CCC2)C1)c1cccc(OCC(F)(F)F)c1` (single isomer, unassigned) [Example 176] has an IC50 [1] of 4.3 nM and an IC50 [2] of 2.9 nM.

In the case of `Cc1ccc(CNC(=O)NC2CC3(CCC3)C2)cc1OCC(F)(F)F` [Example 109, 1-[4-Methyl-3-(2,2,2-trifluoro-ethoxy)-benzyl]-3-spiro[3.3]hept-2-yl-urea], the IC50 [1] is reported as 262 nM and the IC50 [2] is reported as 200 nM.
